Data taken from US20240279304A1, “DSG2 COMPOSITIONS AND METHODS” (Arvada Therapeutics, Inc., priority 2021, published 2024).
Entries after “also recorded” stand apart in the source; their conditions may differ.

Key:
[1] = test system: anti-DSG2 antibody; experiment: anti-DSG2 antibody meso scale discovery (MSD) assay, blocking of anti-DSG2 antibody; assay type: binding; conditions: for % inhibition: fraction C (table title)
Method: The DSG2 fusion polypeptides were tested for the ability to block anti-DSG2 antibody by an anti-DSG2 antibody meso scale discovery (MSD) assay. […] The DSG2 fusion polypeptides were subjected to size exclusion chromatography and different elution fractions were examined. […] As shown in Table 7 and FIG. 1B, FIG. 1C, and FIG. 1D, enriching for fraction C improved the ability of the DSG2 fusion polypeptides to block ARVC patient serum.

[2] = test system: human iPSC cardiomyocytes; experiment: CiPA multielectrode array (MEA) assay, sodium spike; assay type: cell-based; conditions: 1.1 μg/mL DSG2FP #1; anti-DSG2 antibodies 0.5 μg/mL
Method: To determine the effect of anti-DSG2 antibodies in cardiomyocytes, the cardiac in vitro proarrhythmia (CiPA) assay was performed (Sager et al. Am Heart J 2014; 167:292-300; the contents of which are herein incorporated by reference in its entirety). CiPA is envisioned to consist of four components: (1) an evaluation of the effects of test agents on cardiac ion channel assays; (2) in silico modeling of the cardiac action potential based on the ion channel results to integrate the data with cardiac function; (3) experimental measurement of test agent effects in human ventricular myocytes to confirm the modeling result; and (4) scoring the results. […] The sodium spike quantified below is a measurement of the specific sodium channel current in the cardiomyocyte and is also described in Blinova K, et al. Cell Rep. […] The parameters evaluated include measuring a change in the spike in the component of electrical signal propagation (e.g. sodium spike) and cell index—a function of cell impedance and cell number. […]
Commercially available anti-DSG2 antibodies were tested in the cardiomyocyte CiPA assay. […] The voltage (μV) is measured at time intervals of 0, 1 hour, 12 hours, 24 hours, 48 hours, 72 hours, and 96 hours. […]

[3] = test system: anti-DSG2 antibodies in sera of ARVC patients; experiment: Electrochemical immunoassay, blocking of ARVC patient sera binding to DSG2 extracellular domain; set-up: species or system human; conditions: fusion polypeptides 5 μg/mL; patient sera 10% (v/v); FIG. 5
Method: DSG2 fusion polypeptides were investigated for the ability to block the binding of anti-DSG2 antibodies in sera of ARVC patients to the DSG2 extracellular domain in an electrochemical immunoassay. The fusion polypeptides were added to a final concentration of 5 μg/mL and patient sera were used at a final concentration of 10% (v/v). The results are shown in the series of bar charts in FIG. 5, where the numbers 961, 965, 978, 986 and 964 indicate ARVC patient serum samples.
In FIG. 5, the first data series from the left is for DSG2FP #1 (described above as amino acids 49-608 of SEQ ID NO:30; Linker (IEGRMD (SEQ ID NO: 28)); amino acids 100-330 of IgG1 (SEQ ID NO: 4). The second data series from the left is for DSG2(50-602)-6×His, which is a fusion polypeptide of DSG2 amino acids 50-602 of SEQ ID NO: 1 (complete extracellular domain) to a hexahistidine peptide tag. The third data series from the left is for a combination of fusion polypeptides which includes EC1(50-155)-6×His, a fusion of DSG2 amino acids 50-155 of SEQ ID NO: 1 (EC1) to a hexahistidine peptide tag and EC2(151-268)-6×His, a fusion of DSG2 amino acids 151-268 of SEQ ID NO: 1 (EC2) to a hexahistidine peptide tag. […] It is likely that other affinity tags may be determined to be useful in alternative embodiments of DSG2 polypeptides, with examples including, but not limited to CBP, MBP, streptavidin and GST, for example. […]

In the case of “DSG2FP#1: R&D Systems DSG2 extracellular domain (49-608 of SEQ ID NO: 30); linker IEGRMD; amino acids 100-330 of IgG1”, the “ability to bind to and block anti-DSG2 antibody (in words)” value [1] is reported as “able to bind and block anti-DSG2 antibody”, the “% inhibition” value ([1]; sample: Anti-DSG2 antibody (200 ng/mL) control) is reported as 63.8% and the “% inhibition” value ([1]; sample: Anti-DSG2 antibody (1000 ng/mL) control) is reported as 88.4%. For the same substance, the “% inhibition” value ([1]; sample: no antibody control) was 4.8%, the “rescue of the effect of anti-DSG2 antibodies on cardiomyocyte sodium spike (in words)” value [2] was “rescued; also recorded: completely blocks the effect of the anti-DSG2 antibodies on the sodium spike” and the “blocking activity (inhibition; 100% = complete blocking)” value [3] was “best blocking activity”.
